In patent US10653717B2, “Antibiotic compositions” (priority 2016, dated 2020):
“Also recorded” adds a separate entry of the source. Where two headings read alike, the source gives them in different places.

Tests used:
Type in all cases: cell-based, Escherichia coli
E. coli DHB4 [1] = assay: E. coli growth curves in 15 ml tubes, OD600 nm
Experimental: The large scale growth inhibition of E. coli by Ag^+ with ebselen in combination was also observed in shaking testing 15 ml tubes. […] PI is a membrane-impermeable fluorescent dye that has been widely used to detect permeation of cell membrane and dead cells.
E. coli DHB4 cells were grown in 15 ml tubes until an OD600 nm of 0.4, and treated with 5 μM AgNO3 and serial concentration of ebselen (0, 20, 40, 80 μM) in combination. The survival of untreated E. coli was compared with the antibiotic-treated cells by measuring OD600 nm and counting the colonies. For colony formation assay, cells were harvested at 10 min, 1 h, 2 h, and 4 h by centrifugation at 6,000 rpm for 5 min and thoroughly washed 3 times with PBS. The cells were serially diluted in PBS, and 100 μl cultures were plated on LB plates. The colonies were counted after overnight incubation, and CFU/ml was calculated using the following formula: [(colonies)*(dilution factor)]/(amount plated).

E. coli DHB4 WT = assay: MIC of silver and ebselen on E. coli DHB4 redox phenotypes; settings: Escherichia coli, DHB4WT, 24 h, read-out: MIC of ebselen in the presence of silver
Experimental: (§1) Since Trx and GSH/Grx are major thiol-dependent systems, investigated were the effects of Ag^+ with ebselen in combination on Trx or GSH system-deficient E. coli redox mutants.
(§2) Serial dilutions of ebselen and AgNO3 were added to the individual wells. The minimum inhibitory concentration (MIC) was determined after 24 h culture at 37° C.

E. coli DHB4 [2] = assay: ROS production, H2DCF-DA staining, flow cytometry; settings: 5 μM Ag^+ alone or 20 μM ebselen alone
Experimental: The E. coli DHB4 cells were grown till the absorbance at OD600 nm of 0.4 in LB medium, and the bacterial cells were treated with different combinations of ebselen and AgNO3 for 10 min. To analyze the amount of ROS production in the bacteria, cells were harvested by centrifugation at 6,000 rpm for 5 min and thoroughly washed 3 times with PBS, and stained with 5 μM H2DCF-DA for 20 min. After the incubation, cells were spin down and re-suspended in PBS, and the ROS production was quantified by flow cytometry (CyAn adp, Beckman coulter).
The E. coli DHB4 cells were grown till the absorbance at OD600 nm of 0.4 in LB medium, and the bacterial cells were treated with silver and antibiotics in combinations for 10 min. To analyze the amount of ROS production in the bacteria, cells were harvested by centrifugation at 6,000 rpm for 5 min and thoroughly washed 3 times with PBS, and stained with 5 μM H2DCF-DA for 20 min. After the incubation, cells were spun down and re-suspended in PBS, and the ROS production was quantified by flow cytometry (CyAnadp, Beckman coulter).

E. coli DHB4 [3] = assay: E. coli DHB4 growth in micro-well plates, OD600 nm, 16 h; settings: ebselen alone (2, 4, 8 μM); 16 h
Experimental: The effect of silver nitrate with ebselen in combination on the growth of Gram-negative model bacteria, E. coli, was investigated in the microplates. DHB4 overnight cultures were diluted 1:1000 times in Luria-Bertani (LB) medium, and treated with ionic silver (Ag^+) as a nitrate salt (AgNO3) for 16 h.
E. coli DHB4 cells overnight cultures were diluted 1:1000 times in Luria-Bertani (LB) medium and treated with serial concentrations of AgNO3 and/or ebselen for 16 h. The cell viability was determined by measuring the absorbance at 600 nm. The culture treated with 0.8% (v/v) DMSO was used as a control.
E. coli DHB4 cells were grown until an OD600 nm of 0.4, and treated with serial dilutions of ebselen (0, 2, 4, 8 μM) for 16 h. The cell viability was determined by measuring the absorbance at 600 nm. The culture treated with 0.8% (v/v) DMSO was used as a control.

[4] = system: E. coli DHB4 trxA^−gshA^−; assay: microbe, parasite or virus in culture; settings: read-out: MIC of ebselen in the presence of silver
Experimental: as §1, §2

[5] = system: E. coli DHB4 gor^−grxA^−B^−C^−; assay: microbe, parasite or virus in culture; settings: Escherichia coli, 24 h, read-out: MIC of ebselen in the presence of silver
Experimental: as §1, §2

E. coli DHB4 trxA^− = assay: microbe, parasite or virus in culture; settings: Escherichia coli, 24 h, read-out: MIC of ebselen in the presence of silver
Experimental: as §1, §2

[6] = system: E. coli DHB4 grxA^−trxA^−; assay: microbe, parasite or virus in culture; settings: Escherichia coli, 24 h, read-out: MIC of ebselen in the presence of silver
Experimental: as §1, §2

E. coli DHB4 gor^− = assay: microbe, parasite or virus in culture; settings: Escherichia coli, 24 h, read-out: MIC of ebselen in the presence of silver
Experimental: as §1, §2

E. coli DHB4 gshA^− = assay: microbe, parasite or virus in culture; settings: read-out: MIC of ebselen in the presence of silver
Experimental: as §1, §2

[7] = system: E. coli DHB4 trxA^−B^−C^−; assay: microbe, parasite or virus in culture; settings: Escherichia coli, 24 h, read-out: MIC of ebselen in the presence of silver
Experimental: as §1, §2

E. coli DHB4 trxB^− = assay: microbe, parasite or virus in culture; settings: Escherichia coli, 24 h, read-out: MIC of ebselen in the presence of silver
Experimental: as §1, §2

E. coli DHB4 trxC^− = assay: microbe, parasite or virus in culture; settings: read-out: MIC of ebselen in the presence of silver
Experimental: as §1, §2

In the case of `O=c1c2ccccc2[se]n1-c1ccccc1` [ebselen, 2-phenyl-1,2-benzisoselenazol-3(2H)-one], the “E. coli growth (OD600 nm)” value (E. coli DHB4 [1]; 40 μM ebselen or 5 μM Ag^+ alone) is reported as “did not inhibit bacterial growth”, the “E. coli growth (OD600 nm)” value (E. coli DHB4 [1]; 80 μM ebselen alone, back to normal 12 h post-treatment) is reported as “could inhibit E. coli growth in first 8 h” and the MIC (E. coli DHB4 WT; Silver 0 μM) is reported as 80 µM. It also gave an MIC (E. coli DHB4 WT; Silver 0.625 μM) of 8 µM, an MIC (E. coli DHB4 WT; Silver 1.25 μM) of 4 µM and an MIC (E. coli DHB4 WT; Silver 2.5 μM) of 4 µM. For the same molecule, the MIC (E. coli DHB4 WT; Silver 5 μM) was 2 µM, the MIC (E. coli DHB4 WT; Silver 10 μM) was 1 µM and the MIC (E. coli DHB4 WT; Silver 20 μM) was 0.5 µM. For the same molecule, the ROS concentrations (E. coli DHB4 [2]) was “did not change ROS concentrations”, the “effect on E. coli growth” value (E. coli DHB4 [3]) was “no effects on bacterial growth; also recorded: no effect on the growth of E. coli” and the MIC ([4]; Escherichia coli, 24 h, Silver 0 μM, trxA^−gshA^−, 24 h) was 40 µM. For the same molecule, the MIC ([4]; Escherichia coli, 24 h, Silver 5 μM, trxA^−gshA^−, 24 h) was 1 µM, the MIC ([4]; Escherichia coli, 24 h, Silver 10 μM, trxA^−gshA^−, 24 h) was 0.5 µM and the MIC ([4]; Escherichia coli, 24 h) was 4 µM. The MIC [4] was 2 µM, the MIC ([5]; Silver 0 μM) was 40 µM and the MIC ([5]; Silver 5 μM) was 1 µM. For the same molecule, the MIC ([5]; Silver 10 μM) was 0.5 µM, the MIC (E. coli DHB4 trxA^−; Silver 0 μM) was 80 µM and the MIC (E. coli DHB4 trxA^−; Silver 5 μM) was 1 µM. For the same molecule, the MIC (E. coli DHB4 trxA^−; Silver 10 μM) was 1 µM, the MIC (E. coli DHB4 trxA^−; Silver 20 μM) was 0.5 µM and the MIC ([6]; Silver 0 μM) was 40 µM. It also gave an MIC ([6]; Silver 5 μM) of 1 µM, an MIC ([6]; Silver 10 μM) of 0.5 µM and an MIC (E. coli DHB4 gor^−; Silver 0 μM) of 80 µM. The MIC (E. coli DHB4 gor^−; Silver 5 μM) was 1 µM, the MIC (E. coli DHB4 gor^−; Silver 10 μM) was 1 µM and the MIC (E. coli DHB4 gor^−; Silver 20 μM) was 0.5 µM. The MIC (E. coli DHB4 gshA^−; Escherichia coli, 24 h, Silver 0 μM, gshA^−, 24 h) was 40 µM, the MIC (E. coli DHB4 gshA^−; Escherichia coli, 24 h, Silver 5 μM, gshA^−, 24 h) was 1 µM and the MIC (E. coli DHB4 gshA^−; Escherichia coli, 24 h, Silver 10 μM, gshA^−, 24 h) was 0.5 µM. For the same molecule, the MIC (E. coli DHB4 gshA^−; Escherichia coli, 24 h) was 4 µM, the MIC (E. coli DHB4 gshA^−) was 2 µM and the MIC ([7]; Silver 0 μM) was 80 µM. The MIC ([7]; Silver 5 μM) was 1 µM, the MIC ([7]; Silver 10 μM) was 0.5 µM and the MIC ([7]; Silver 20 μM) was 0.5 µM. The MIC (E. coli DHB4 trxB^−; Silver 0 μM) was 80 µM, the MIC (E. coli DHB4 trxB^−; Silver 5 μM) was 1 µM and the MIC (E. coli DHB4 trxB^−; Silver 10 μM) was 0.5 µM. For the same molecule, the MIC (E. coli DHB4 trxB^−; Silver 20 μM) was 0.5 µM, the MIC (E. coli DHB4 trxC^−; Escherichia coli, 24 h, Silver 0 μM, trxC^−, 24 h) was 80 µM and the MIC (E. coli DHB4 trxC^−; Escherichia coli, 24 h, Silver 5 μM, trxC^−, 24 h) was 2 µM. The MIC (E. coli DHB4 trxC^−; Escherichia coli, 24 h, Silver 10 μM, trxC^−, 24 h) was 1 µM, the MIC (E. coli DHB4 trxC^−; Escherichia coli, 24 h, Silver 20 μM, trxC^−, 24 h) was 0.5 µM and the MIC (E. coli DHB4 trxC^−; Escherichia coli, 24 h) was 8 µM. For the same molecule, the MIC (E. coli DHB4 trxC^−) was 4 µM.
